Results from US12570651B2, “Quinazoline-2,4-dione derivatives as PARP inhibitors” (Suzhou Four Health Pharmaceuticals Co., Ltd., priority 2019, dated 2026).

Key:
[1] = molecular target: T1, PARP-1 (Homo sapiens, UniProt P09874); assay: PARP/Apoptosis Universal Colorimetric Assay Kit (ELISA), PARP inhibitory activity; format: biochemical; conditions: for IC50: Elise test methods April 2020, 0.5 U/well PARP-HSA Enzyme, read-out: IC50-values for different PARP-inhibitors, as calculated by ELISA; for IC50, comparison in words: ELISA
T1 construct: purchased BioTechne—R&D Systems 4677-096-K
T1 sequence (P09874 whole entry): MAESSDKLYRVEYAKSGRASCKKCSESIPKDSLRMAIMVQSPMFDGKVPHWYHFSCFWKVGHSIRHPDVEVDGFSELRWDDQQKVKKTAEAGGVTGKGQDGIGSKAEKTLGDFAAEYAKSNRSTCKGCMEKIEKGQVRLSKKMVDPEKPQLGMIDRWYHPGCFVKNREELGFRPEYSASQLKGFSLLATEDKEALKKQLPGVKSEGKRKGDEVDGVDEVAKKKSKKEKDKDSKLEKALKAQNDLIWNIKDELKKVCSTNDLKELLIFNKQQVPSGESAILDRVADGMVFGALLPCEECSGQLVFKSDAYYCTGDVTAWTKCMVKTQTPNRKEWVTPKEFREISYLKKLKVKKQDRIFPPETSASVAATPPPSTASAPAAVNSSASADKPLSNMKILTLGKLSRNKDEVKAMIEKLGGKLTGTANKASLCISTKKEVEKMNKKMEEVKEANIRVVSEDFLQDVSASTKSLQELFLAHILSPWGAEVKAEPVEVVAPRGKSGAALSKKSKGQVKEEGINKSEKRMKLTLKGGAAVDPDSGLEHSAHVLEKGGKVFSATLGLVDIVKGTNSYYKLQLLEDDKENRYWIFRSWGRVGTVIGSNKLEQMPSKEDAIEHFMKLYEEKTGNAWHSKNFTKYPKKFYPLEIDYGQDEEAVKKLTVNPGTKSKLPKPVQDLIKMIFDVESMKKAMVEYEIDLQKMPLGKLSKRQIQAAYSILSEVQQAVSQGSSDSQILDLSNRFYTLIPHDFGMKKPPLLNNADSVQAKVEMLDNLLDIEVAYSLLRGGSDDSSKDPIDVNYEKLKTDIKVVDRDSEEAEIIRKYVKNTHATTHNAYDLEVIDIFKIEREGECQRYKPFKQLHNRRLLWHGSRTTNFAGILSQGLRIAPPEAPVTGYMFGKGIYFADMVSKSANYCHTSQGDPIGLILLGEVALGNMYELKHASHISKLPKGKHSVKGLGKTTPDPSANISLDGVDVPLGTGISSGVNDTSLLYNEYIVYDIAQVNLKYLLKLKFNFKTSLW
Protocol: The inhibitors (13F, 14F, 13I-FL, 13F-FL, 14F-FL, 13I and 14I) were kept at −20° C., dissolved in DMSO at 20 mg/mL.
The PARP/Apoptosis Universal Colorimetric Assay Kit 4677-096-K was purchased from BioTechne—R&D Systems. This ELISA kit detects biotinylated poly (ADP-ribose) deposited by PARP-1 onto immobilized histones in a 96-well format. The addition of Strep-HRP (biotin-binding protein) and a colorimetric HRP substrate yields relative absorbance that correlates with PARP-1 activity. The kit is used for in vitro screening of candidate PARP-1 inhibitors and determination of IC50 values.
The protocol recommended by the provider was followed. A 1/10 serial dilution of the inhibitors (ranging from 500 μM to 0.5 nM, 7 data points in triplicate) was added to the designated wells. Wells incubated with 0.5 U/well of PARP-HSA Enzyme without inhibitor were used as the 100% activity reference point. Data was expressed as % of Maximal Activity and plotted in function of the log of concentration (M)) using Graph Pad Prism 8. IC50 values were determined using a dose-response-inhibition equation.

[2] = tested on: FaDu cells; assay: In vitro cell binding study, confocal microscopy; format: cell-based
Protocol: (§1) 40 000 cells (FaDu, OE33, or Cal27) were plated in 24-well plates (Cell imaging plates with glass bottom, Eppendorf), and incubated for 2 days at 37° C. After removal of the medium, either 0.5 mL of media (Cond 1), 0.5 mL of 10 μM unlabeled PARPi (14F) (Cond 2) or 0.5 mL of 10 μM Olaparib (Cond 3) was added to the cells. After 30 minutes of incubation at 37° C., cells were washed with 1 mL of medium. Subsequently, 0.5 mL of 14F-FL at a final concentration of 0.1 μM was added and incubated for 15 min at 37° C. The cells were then washed thrice with 1 ml cold PBS, fixed with 1 mL 4% paraformaldehyde (VWR) for 7-10 minutes and washed again with 1 mL PBS. Finally, 0.5 mL of 1 μg/mL DAPI-staining solution (DAPI ready-made solution, Sigma) was added for at least 10 min to stain the cell nuclei.
(§2) High resolution bright field and fluorescent images of the cells were acquired on a confocal microscope (LSM800, Zeiss) with excitation and emission wavelengths of 405/455 nm for DAPI and 488/525 for BodipyFL (standard conditions). Images were taken with a Plan Apochromat 63×/1.4 oil objective. Images were analyzed with the Software ZenLITE (Zeiss).

[3] = tested on: Cal27 cells; assay: In vitro cell binding study, confocal microscopy; format: cell-based
Protocol: as §1, §2

[4] = tested on: OE33 cells; assay: In vitro cell binding study, confocal microscopy; format: cell-based
Protocol: as §1, §2

[5] = tested on: FaDu cells; assay: Cell binding by flow cytometry; format: cell-based
Protocol: (§3) 250 000 cells (FaDu, Cal27 or OE33) in suspension were incubated with 0.5 mL media, 0.5 mL 10 μM unlabeled 14F or 0.5 mL 10 μM Olaparib-analogue. After 30 min incubation at 37° C., the cells were washed once with 0.5 mL media and subsequently incubated with 0.5 mL 0.1 μM 14F-FL for 10 min at 37° C. The cells were then washed thrice with media (including 1×10 min incubation) and resuspended in FACS buffer (PBS+0.5% FBS+EDTA+N3). Finally, cells were analyzed on a flow cytometer (BD Celesta) in the GFP channel (ex 488 nm, em filter 510 nm). Data was analyzed via FlowJo software.

[6] = tested on: Cal27 cells; assay: Cell binding by flow cytometry; format: cell-based
Protocol: as §3

[7] = tested on: OE33 cells; assay: Cell binding by flow cytometry; format: cell-based
Protocol: as §3

[8] = tested on: FaDu cells; assay: In vitro dissociation kinetics, confocal microscopy; format: cell-based
Protocol: 40 000 FaDu cells were plated in 24-well plates (Cell imaging plates with glass bottom, Eppendrof), and incubated for 2 days at 37° C. After removal of the medium, 0.5 mL of 14F-FL at a final concentration of 0.1 μM was added and incubated for 15 min at 37° C. The cells were then washed thrice with 1 ml cold PBS, and further incubated for 0 min, 30 min, 1 h, 2 h, 4 h or 24 h in medium at 37° C. After washing once with 1 mL cold PBS, the cells were fixed with 4% paraformaldehyde (VWR) and staining with DAPI as described above.
as §2

[9] = tested on: FaDu cells; assay: In vitro association kinetics, confocal microscopy; format: cell-based; conditions: 0.1 μM, 37° C.
Protocol: 40 000 FaDu cells were plated in 24-well plates (Cell imaging plates with glass bottom, Eppendorf), and incubated for 2 days at 37° C. After removal of the medium, 0.5 mL of 14F-FL at a final concentration of 0.1 μM was added and incubated for 2 min, 10 min, 20 min, 30 min, 45 min or 60 min at 37° C. The cells were then washed thrice with 1 ml cold PBS, fixed with 1 mL 4% paraformaldehyde (VWR) for 7-10 minutes and washed again with 1 mL PBS. Finally, 0.5 mL of 1 μg/mL DAPI-staining solution (DAPI ready-made solution, Sigma) was added for at least 10 min to stain the cell nuclei.
as §2

[10] = 10 μM pretreatment 30 min, then 0.1 μM 14F-FL
[11] = 0.1 μM 14F-FL, 15 min at 37° C.
[12] = 0.1 μM 15 min, washed, medium at 37° C.
[13] = 0.1 μM 14F-FL, 10 min at 37° C.

Which IC50 [1] does the source give for `O=C(c1cc(Cn2c(=O)[nH]c(=O)c3ccccc32)ncc1I)N1CCN(C(=O)C2CCCC2)CC1` [Compound 14I, 1-((4-(4-(cyclopentanecarbonyl)piperazine-1-carbonyl)-5-iodopyridin-2-yl)methyl)quinazoline-2,4(1H,3H)-dione] here?
The IC50 was > 500 nM.

How did the IC50 [1] turn out when `CC1=CC(C)=[N+]2C1Cc1ccc(CCC(=O)N3CCN(C(=O)c4cc(Cn5c(=O)[nH]c(=O)c6cccnc65)ccc4I)CC3)n1[B-]2(F)F` (stereo not shown) [Compound 13I-FL, 1-(3-(4-(3-(5,5-difluoro-7,9-dimethyl-5H-5I4,6I4-dipyrrolo[1,2-c:2′,1′-f][1,3,2]diazaborinin-3-yl)propanoyl)piperazine-1-carbonyl)-4-iodobenzyl)pyrido[2,3-d]pyrimidine-2,4(1H,3H)-dione] was run?
Its IC50 is > 500 nM.

`CC1=CC(C)=[N+]2C1Cc1ccc(CCC(=O)N3CCN(C(=O)c4cc(Cn5c(=O)[nH]c(=O)c6cccnc65)ccc4F)CC3)n1[B-]2(F)F` (stereo not shown) [Compound 13F-FL, 1-(3-(4-(3-(5,5-difluoro-7,9-dimethyl-5H-5I4,6I4-dipyrrolo[1,2-c:2′,1′-f][1,3,2]diazaborinin-3-yl)propanoyl)piperazine-1-carbonyl)-4-fluorobenzyl)pyrido[2,3-d]pyrimidine-2,4(1H,3H)-dione] was tested. Which IC50 [1] did it give?
Its IC50 is 50 to 500 nM.

With `O=C(c1cc(Cn2c(=O)[nH]c(=O)c3ccccc32)ncc1F)N1CCN(C(=O)C2CCCC2)CC1` [Compound 14F, 1-((4-(4-(cyclopentanecarbonyl)piperazine-1-carbonyl)-5-fluoropyridin-2-yl)methyl)quinazoline-2,4(1H,3H)-dione] as the compound, how does the “14F-FL signal after pretreatment with excess of unlabeled analogue” value (from here on “14F-FL signal … of unlabeled analogue”) [2, 10] read?
The value was “no green fluorescent signal”.

And the “14F-FL signal … of unlabeled analogue” value [3, 10]?
The value was “no green fluorescent signal”.

What about the “14F-FL signal … of unlabeled analogue” value [4, 10] of the same compound?
Its value is “no green fluorescent signal”.

And the “14F-FL binding after pretreatment with excess unlabeled compound, flow cytometry” value (“14F-FL binding after pretreatment” below) [5, 10]?
Its value is “decreased the binding”.

What about the “14F-FL binding after pretreatment” value [6, 10] of the same compound?
The value was “decreased the binding”.

And the “14F-FL binding after pretreatment” value [7, 10]?
Its value is “decreased the binding”.

What about the “IC50, comparison in words” value [1] of the same compound?
Its value is “Best IC50-values”.

And the IC50 [1]?
The IC50 was < 50 nM.

`O=C(c1cc(Cn2c(=O)[nH]c(=O)c3cccnc32)ccc1I)N1CCN(C(=O)C2CCCC2)CC1` [Compound 13I, 1-(3-(4-(cyclopentanecarbonyl)piperazine-1-carbonyl)-4-iodobenzyl) pyrido [2,3-d]pyrimidine-2,4(1H,3H)-dione] was tested. Which IC50 [1] did it give?
Its IC50 is > 500 nM.

How did the “fluorescent signal in the nuclei” value [2, 11] turn out when `CC1=CC(C)=[N+]2C1=Cc1ccc(CCC(=O)N3CCN(C(=O)c4cc(Cn5c(=O)[nH]c(=O)c6ccccc65)ncc4F)CC3)n1[B-]2(F)F` [Compound 14F-FL, 1-((4-(4-(3-(5,5-difluoro-7,9-dimethyl-5H-5I4,6I4-dipyrrolo[1,2-c:2′,1′-f][1,3,2]diazaborinin-3-yl)propanoyl)piperazine-1-carbonyl)-5-fluoropyridin-2-yl)methyl)quinazoline-2,4(1H,3H)-dione] was run?
The value was “intense green fluorescent signal”.

What about the “fluorescent signal in the nuclei” value [3, 11] of the same compound?
Its value is “intense green fluorescent signal”.

And the “fluorescent signal in the nuclei” value [4, 11]?
Its value is “intense green fluorescent signal”.

And the “retention on target after binding” value [8, 12]?
The value was “remains bound to its target for a few hours”.

And the “time from which the signal in the nucleus gradually decreases” value [8, 12]?
The value was 2 to 4 h.

What about the “signal in the nuclei after 24 h” value ([8]; 24 h in medium at 37° C. after washing) of the same compound?
Its value is “some signal can still be observed”.

And the “incubation time to maximal binding” value [9]?
The value was ≤ 10 min.

And the “cell binding, flow cytometry” value [5, 13]?
The value was “significant binding”.

And the “cell binding, flow cytometry” value [6, 13]?
Its value is “significant binding”.

What about the “cell binding, flow cytometry” value [7, 13] of the same compound?
Its value is “significant binding”.

And the “IC50, comparison in words” value [1]?
Its value is “Best IC50-values”.

And the IC50 [1]?
Its IC50 is < 50 nM.

For `O=C(c1cc(Cn2c(=O)[nH]c(=O)c3cccnc32)ccc1F)N1CCN(C(=O)C2CCCC2)CC1` [Compound 13F, 1-(3-(4-(cyclopentanecarbonyl)piperazine-1-carbonyl)-4-fluorobenzyl)pyrido[2,3-d]pyrimidine-2,4(1H,3H)-dione], which IC50 [1] is on record?
The IC50 was 50 to 500 nM.
